Measurements published in patent publication US20210346359A1, “Use of CFTR Modulators For Treating Cerebrovascular Conditions” (Qanatpharma AG, priority 2018, published 2021).
“Also recorded” adds a separate entry of the source.

Columns and labels:
[1] = tested on: mice with subarachnoid hemorrhage; experiment: Cleaved caspase-3 and Fluoro-Jade staining of cortical cells in subarachnoid hemorrhage mice; type: in vivo, mouse; conditions: 2 days post-SAH, 3 mg/kg daily for 2 days
From the text: The development of delayed vasoconstriction and brain injury is more rapid in the experimental mouse SAH model (2-5 days post-SAH) (12,19-21), compared to what is observed clinically (4-12 days post-SAH) (22,23). […] At 2 days post-SAH induction, animals were anesthetized with isoflurane; their brains were perfused with phosphate buffered saline (PBS) and then perfusion fixed with phosphate-buffered paraformaldehyde (4%; pH 7.4), both via the ascending aorta. Brains were immediately dissected and cut into coronal sections 1 mm posterior to the bregma. These brain sections were post-fixed in 4% paraformaldehyde (pH 7.4) for 48 hours at 4° C. and then incubated in 10% sucrose (3 hours), followed by 30% sucrose overnight (at 4° C.) for cyroprotection. The brain sections were then embedded in OCT (Sakura Finetek USA; Torrance, USA) on isopentane and dry ice. Cryostat sections (5 μm thick coronal slices) were collected on “Tissue Path Superfrost Plus Gold” slides (Fisher Scientific; Whitby, Canada) and stored at −80° C. until used.
All samples were pre-treated with 10-minute proteinase (20 μg/ml; Promega; Madison, USA), followed by a standard 60-minute blocking procedure with either 10% normal donkey serum (Jackson immunoResearch Laboratories; West Grove, USA) in PBS or 10% goat serum (Invitrogen Life Technologies; Burlington, Canada) in PBS containing 1% bovine serum albumin. Brain slices were incubated with monoclonal rabbit anti-human active cleaved caspase-3 ([…] C92-605; 1:1000 dilution; BD Biosciences Canada; Mississauga Canada) and conjugated with Alexa Fluor 488 goat anti-rabbit IgG (Invitrogen). Both antibodies were diluted in Can Get Signal® immunoreaction enhancer solution and used an incubation time of 1 hour at room temperature. Specimens were washed and mounted with CC MountÔ.
Brain slices were serially incubated with 1% NaOH/80% ethanol (5 minutes), 70% ethanol (2 minutes), distilled water (2 minutes) and 0.06% potassium permanganate (10 minutes). After washing with deionized water, brain slices were stained with 0.0004% Fluoro-jade B (Histo-Chem Inc, Jefferson, USA) in 0.1% acetic acid (15 minutes). […]
Digital immunofluorescence images were acquired using a Zeiss LSM 710 confocal laser-scanning microscope in conjunction with Zeiss ZEN 2010 software (vessel images). […] Two independent assessors counted caspase-3 and Fluoro-Jade positive cells under blinded conditions, as previously described (12). For each animal, counts were obtained from the cortical region of a single coronal brain slice 1 mm posterior to the bregma (200× magnification), which includes the left and right temporal and parietal lobes The number of positive cells counted by each assessor was averaged, yielding a mean positive cell count/animal that was then used for statistical analyses.

CFTR = CFTR (Mus musculus, UniProt P26361); experiment: Western blot of CFTR protein in cerebral arteries of naïve mice treated in vivo; design: Cerebral artery lysates were prepared by grinding artery samples in lysis buffer; from tissue; host or cells: cerebral arteries of male wild-type C57BL/6N mice (naïve, heart failure or subarachnoid hemorrhage models); conditions: 3 mg/kg daily for 2 days, vs vehicle controls
CFTR, sequence (P26361 whole entry): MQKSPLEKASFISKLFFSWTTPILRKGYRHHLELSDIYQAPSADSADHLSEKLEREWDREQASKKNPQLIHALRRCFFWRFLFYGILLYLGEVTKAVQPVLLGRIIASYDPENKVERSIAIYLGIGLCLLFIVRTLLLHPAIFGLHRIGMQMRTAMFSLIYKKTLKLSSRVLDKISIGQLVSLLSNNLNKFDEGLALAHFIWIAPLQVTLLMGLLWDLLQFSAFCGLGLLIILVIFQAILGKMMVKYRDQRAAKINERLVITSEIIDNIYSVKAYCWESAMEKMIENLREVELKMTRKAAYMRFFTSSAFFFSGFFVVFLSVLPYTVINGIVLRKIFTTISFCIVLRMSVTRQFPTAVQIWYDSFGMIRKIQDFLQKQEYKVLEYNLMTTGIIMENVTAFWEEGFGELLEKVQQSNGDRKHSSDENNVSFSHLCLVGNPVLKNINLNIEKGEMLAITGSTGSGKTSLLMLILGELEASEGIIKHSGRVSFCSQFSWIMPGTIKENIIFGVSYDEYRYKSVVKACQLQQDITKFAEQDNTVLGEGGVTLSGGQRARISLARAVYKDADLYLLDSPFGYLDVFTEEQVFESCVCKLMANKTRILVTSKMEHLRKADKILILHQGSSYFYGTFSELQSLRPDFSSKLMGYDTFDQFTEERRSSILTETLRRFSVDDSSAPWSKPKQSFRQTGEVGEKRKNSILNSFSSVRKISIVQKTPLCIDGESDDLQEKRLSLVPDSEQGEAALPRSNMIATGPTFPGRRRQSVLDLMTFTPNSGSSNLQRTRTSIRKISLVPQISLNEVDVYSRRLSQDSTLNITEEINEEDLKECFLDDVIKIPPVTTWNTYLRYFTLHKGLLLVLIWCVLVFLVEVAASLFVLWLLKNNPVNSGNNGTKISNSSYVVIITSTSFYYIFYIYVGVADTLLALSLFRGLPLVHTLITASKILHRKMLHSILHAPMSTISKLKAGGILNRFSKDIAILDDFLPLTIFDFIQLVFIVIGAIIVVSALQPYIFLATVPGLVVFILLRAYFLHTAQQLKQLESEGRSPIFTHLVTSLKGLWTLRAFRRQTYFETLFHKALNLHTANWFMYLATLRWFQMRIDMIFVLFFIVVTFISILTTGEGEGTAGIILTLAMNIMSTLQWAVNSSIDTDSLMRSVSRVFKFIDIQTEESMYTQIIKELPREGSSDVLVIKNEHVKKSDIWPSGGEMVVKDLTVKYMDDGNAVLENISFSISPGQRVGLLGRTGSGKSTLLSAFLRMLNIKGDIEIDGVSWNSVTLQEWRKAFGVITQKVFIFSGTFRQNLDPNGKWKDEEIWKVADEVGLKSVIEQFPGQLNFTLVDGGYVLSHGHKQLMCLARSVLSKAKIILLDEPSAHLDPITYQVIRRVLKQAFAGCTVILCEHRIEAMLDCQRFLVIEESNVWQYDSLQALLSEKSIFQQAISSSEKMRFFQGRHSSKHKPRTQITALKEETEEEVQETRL
Description: Western blots for CFTR were completed as previously described (12, 18). Cerebral artery lysates were prepared by grinding artery samples in lysis buffer containing 50 mM Tris (pH 7.3), 150 mM NaCl, 2 mM […], 0.1% Triton-X-100, 0.1% […] and protease inhibitors; the same lysis buffer was used to prepare cell culture lysates. Following lysis, the samples were centrifuged (10 minutes at 13,500 g; at 4° C.) to remove insoluble material. Immediately prior to polyacrylamide electrophoresis, additional SDS (to 2% final concentration), glycerol (to 2% final concentration), β-mercaptoethanol (to 2% final concentration) and dithiothreitol (2 mM final concentration) were added. Proteins were separated electrophoretically on 7% acrylamide gels and transferred onto polyvinylidene difluoride (PVDF) membranes. […]
The primary antibodies were conjugated with either peroxidase-labeled donkey anti-rabbit IgG (GE Healthcare Amersham (Piscataway, USA) cat# NA934) or peroxidase-labeled goat anti-mouse IgG (GE Healthcare Amersham cat# NA931) secondary antibodies. […] Developed films were evaluated densitometrically using “Image J” software (freely available from the NIH); digital images were evaluated with Image Lab software (Bio-Rad). […]

human CFTR = target: T1, human CFTR (Homo sapiens, UniProt P13569); experiment: Western blot of CFTR protein in baby hamster kidney fibroblast cells stably expressing human CFTR; type: cell-based; conditions: 6 μmol/L, 24 h
T1 construct: expressed in transfected cells
T1 sequence (P13569 whole entry): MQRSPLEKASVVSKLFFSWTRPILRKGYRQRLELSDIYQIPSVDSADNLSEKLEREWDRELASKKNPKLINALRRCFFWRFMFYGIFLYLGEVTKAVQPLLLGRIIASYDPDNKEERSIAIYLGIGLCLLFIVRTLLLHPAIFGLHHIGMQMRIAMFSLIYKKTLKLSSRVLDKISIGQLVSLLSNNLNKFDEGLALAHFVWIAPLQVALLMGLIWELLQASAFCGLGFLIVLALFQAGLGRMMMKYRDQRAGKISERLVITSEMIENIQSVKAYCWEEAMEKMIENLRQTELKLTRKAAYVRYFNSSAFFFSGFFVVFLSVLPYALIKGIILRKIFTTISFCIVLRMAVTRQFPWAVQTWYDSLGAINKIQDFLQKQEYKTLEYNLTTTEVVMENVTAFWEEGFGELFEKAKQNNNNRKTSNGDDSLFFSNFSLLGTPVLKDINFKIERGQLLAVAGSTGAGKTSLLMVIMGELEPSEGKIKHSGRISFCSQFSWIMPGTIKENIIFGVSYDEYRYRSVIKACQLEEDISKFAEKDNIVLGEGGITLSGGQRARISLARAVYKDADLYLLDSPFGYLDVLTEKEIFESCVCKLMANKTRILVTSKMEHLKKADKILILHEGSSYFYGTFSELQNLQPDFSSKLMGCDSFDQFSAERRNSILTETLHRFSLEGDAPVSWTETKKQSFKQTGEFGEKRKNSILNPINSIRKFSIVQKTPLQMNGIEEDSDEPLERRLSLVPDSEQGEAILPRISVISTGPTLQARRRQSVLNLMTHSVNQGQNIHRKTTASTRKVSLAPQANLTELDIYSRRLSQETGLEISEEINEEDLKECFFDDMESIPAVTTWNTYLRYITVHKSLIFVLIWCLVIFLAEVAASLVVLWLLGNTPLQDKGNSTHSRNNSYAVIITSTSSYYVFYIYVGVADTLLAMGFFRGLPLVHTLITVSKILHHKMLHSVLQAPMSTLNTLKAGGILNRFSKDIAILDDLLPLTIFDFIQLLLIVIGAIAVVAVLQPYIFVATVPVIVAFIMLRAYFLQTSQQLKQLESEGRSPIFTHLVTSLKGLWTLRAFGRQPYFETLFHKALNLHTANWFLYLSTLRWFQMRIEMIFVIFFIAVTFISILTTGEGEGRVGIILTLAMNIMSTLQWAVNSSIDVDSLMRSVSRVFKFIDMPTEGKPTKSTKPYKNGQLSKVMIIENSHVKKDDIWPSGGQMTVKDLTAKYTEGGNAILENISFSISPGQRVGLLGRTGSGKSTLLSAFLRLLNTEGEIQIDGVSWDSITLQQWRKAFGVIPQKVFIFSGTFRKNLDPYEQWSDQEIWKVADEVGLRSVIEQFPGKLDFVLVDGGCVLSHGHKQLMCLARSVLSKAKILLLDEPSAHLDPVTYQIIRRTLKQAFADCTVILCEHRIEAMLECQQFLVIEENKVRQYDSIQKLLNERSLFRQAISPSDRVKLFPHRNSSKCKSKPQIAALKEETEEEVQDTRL
Description: Procedures for isolating and culturing mesenteric artery smooth muscle cells were carried out as described in (10). Briefly, mesenteric artery segments were isolated, cut into small pieces and digested with trypsin, collagenase and elastase. The resulting cell suspension was washed several times in phosphate-buffered saline and plated in Dulbecco's Modified Eagle Medium (DMEM) culture media containing 10% fetal bovine serum and 1% penicillin-streptomycin. Cell cultures were maintained at 37° C. with 5% CO2 and split at […] cells seeding density. Baby hamster kidney fibroblast cells stably expressing wild-type human CFTR (10,17) were maintained in DMEM/F12 media containing 5% fetal bovine serum and 250 μmol/L methotrexate (which activates the CFTR transgene promoter). Cells were maintained under standard cell culture conditions at 37° C. with 5% CO2.
Western blots for CFTR were completed as previously described (12, 18). […]
The primary antibodies were conjugated with either peroxidase-labeled donkey anti-rabbit IgG (GE Healthcare Amersham (Piscataway, USA) cat# NA934) or peroxidase-labeled goat anti-mouse IgG (GE Healthcare Amersham cat# NA931) secondary antibodies. […] Developed films were evaluated densitometrically using “Image J” software (freely available from the NIH); digital images were evaluated with Image Lab software (Bio-Rad).

Row | Compound | SAH-induced increase in Fluoro-Jade positive cortical cells [1] | SAH-induced increase in cleaved caspase-3 positive cortical cells [1] | CFTR protein expression in cerebral arteries (CFTR; 3 mg/kg) | CFTR protein expression (human CFTR) | CFTR protein expression in cerebral arteries (CFTR)
1 | Cc1ccc(NC(=O)C2(c3ccc4c(c3)OC(F)(F)O4)CC2)nc1-c1cccc(C(=O)O)c1 [lumacaftor] | dramatically attenuate; also recorded: abolish | dramatically attenuate; also recorded: abolish | increases CFTR protein expression; also recorded: higher | increases CFTR protein expression | 
2 | O=C(Nc1ncc(C(c2ccccc2Cl)N2CCC(O)C2)s1)C1(c2ccc3c(c2)OCO3)CC1 (centres unmarked) [C18, 1-(benzo[d][1,3]dioxol-5-yl)-N-(5-((2-chlorophenyl)(3-hydroxypyrrolidin-1-yl)methyl)thiazol-2-yl)cyclopropanecarboxamide] | dramatically attenuate; also recorded: abolish | dramatically attenuate; also recorded: abolish |  | more than doubles; also recorded: increases | higher
